Test system: 817829-284-R-J1-PDC complex spheroids, viability
Experiment: Anticancer human tumor 817829-284-R-J1-PDC patient-derived colon adenocarcinoma cell line growth inhibition [CLK]
Conditions: second compound 10 µM; first compound 0.0316 µM; stronger effect = lower value
Description: A high-throughput screen of multi-cell type tumor spheroids was designed to identify active combinations of […] and targeted small molecules. Complex spheroids include a stromal component modeled by human endothelial cells (HUVEC) and fibroblasts modeled by human mesenchymal stem cells (MSCs). The concentration ranges selected for each drug and investigational agent were based upon clinically achievable concentrations if the clinical Cmax of the agent was known.
Compounds. The drugs and investigational agents: cirtuvivint (SM08502; NSC835563), CC-671 (NSC850746), vemurafenib (NSC761431), tapotoclax (NSC804041), sotorasib (NSC818433), adagrasib (NSC831453), MRTX-1133 (NSC836407), BAY2416964 (NSC825713), copanlisib (NSC816437), inavolisib (NSC800729), abemaciclib (NSC768073), osimertinib (NSC779217), entinostat (NSC756642), eltanexor (KPT-8602, NSC794443), venetoclax (NSC766270), ceralasertib (NSC777638), bortezomib (NSC756655), olaparib (NSC753686), talazoparib (NSC767125), alisertib (NSC759677), peposertib (NSC802822), gemcitabine (NSC613327), 5-fluorouracil (NSC19893), SN-38 (NSC673596), oxaliplatin (NSC266046), paclitaxel (NSC125973), and doxorubicin (NSC123127), were obtained from the National Cancer Institute (NCI) Developmental Therapeutics Program Chemical Repository. The FDA-approved anticancer drug set is available from the Developmental Therapeutics Program at https://dtp.cancer.gov/organization/dscb/obtaining/available plates.htm. […] The stock solutions were prepared in dimethyl sulfoxide (DMSO, Sigma-Aldrich, St. Louis, MO, cat. D2650), except for the platinum complexes which were prepared in saline (Quality Biological, Gaithersburg, MD, cat. 114-055-101), at 800-fold the tested concentration and stored at -70 degrees C prior to their use. All drugs and investigational agents were tested over a range starting from a high concentration at or near the clinical Cmax and decreasing in half-log increments. If the clinical Cmax for an agent had not been determined, the highest concentration tested was 10 microM.
Cell Culture. All cells were maintained in an incubator at 37 degrees C and 5% CO2 with 95% humidity. The PDC lines were cultured according to standard operating procedures established by the NCI PDMR. Briefly, all PDCs were thawed and cultured in Matrigel-coated flasks prepared with a working solution of 1X Ham's F-12 nutrient mix, without supplementation (Invitrogen, Waltham, MA, cat. 11765054), 100 U/mL penicillin-streptomycin (Invitrogen, cat. 15140122), and 2.5% Matrigel (Corning Inc., Corning, NY, cat. 354248) for the first three passages. The 947758-054-R-J2-PDC line was cultured in 6B/Colon 1A media, which includes advanced DMEM/F-12 (Thermo Fisher Scientific, cat. 12634028), 10 mM HEPES (Thermo Fisher Scientific, cat. 15630080), 1X GlutaMAX supplement (Thermo Fisher Scientific, cat. 35050061), 0.1 mg/mL primocin (InvivoGen, cat. ant-pm-2), 10% defined fetal bovine serum, heat inactivated (HyClone Laboratories Inc., cat. SH30070.03HI), 1.25 mM N-Acetyl-L-cysteine (Sigma-Aldrich, cat. A9165), 10 mM nicotinamide (Sigma-Aldrich, cat. N0636), 1X B-27 supplement (Thermo Fisher Scientific, cat. 17504044), 1X N-2 supplement (Thermo Fisher Scientific, cat. 17502048), and 10 microM Y-27632 dihydrochloride (Tocris Bioscience, cat. 1254). The 876862-298-R-J1-PDC was cultured in 6E media, which includes all 6B/Colon 1A media components plus 50% L-WRN conditioned media (ATCC, cat. CRL-3276), 50 ng/mL recombinant human EGF recombinant protein (hEGF; Thermo Fisher Scientific, cat. PHG0311), 10 ng/mL recombinant human fibroblast growth factor 10 (hGFG-10; PeproTech, cat. 100-26), 1 ng/mL recombinant human fibroblast growth factor 2 (hFGF-2; PeproTech, cat. 100-18B), and 1 µM prostaglandin E2 (PGE2; Tocris, cat. 2296). The 227483-062-R1-J1-PDC line was cultured in Panc media, containing all 6E components except hFGF-2, with the addition of 500 nM SB-431542 (Selleckchem, cat. S1067) and 10 nM gastrin (Tocris, cat. 3006). […]
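Further: spheroids exposed to the agents for seven days before readout.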

`COC1C=CCC(C)C(C)S(=O)(=O)NC(=O)c2ccc3c(c2)N(CC2CCC21)CC1(CCCc2cc(Cl)ccc21)CO3` (stereo unspecified) + CN1CCN(c2cc(C(=O)Nc3cc4cc(-c5cnn(C)c5)ccc4cn3)ccn2)CC1 gave a viability, T/C of 0.48%.

Same assay, conditions: second compound 10 µM; first compound 0.1 µM; stronger effect = lower value

`C=C(F)C(=O)N1CCN(c2nc(OCC3CCCN3C)nc3c2CCN(c2cccc4cccc(Cl)c24)C3)CC1CC#N` (stereo unspecified) + CN1CCN(c2cc(C(=O)Nc3cc4cc(-c5cnn(C)c5)ccc4cn3)ccn2)CC1 and `C=CC(=O)N1CCN(c2nc(=O)n(-c3c(C)ccnc3C(C)C)c3nc(-c4c(O)cccc4F)c(F)cc23)C(C)C1` (stereo unspecified) + CN1CCN(c2cc(C(=O)Nc3cc4cc(-c5cnn(C)c5)ccc4cn3)ccn2)CC1 are the same in viability, T/C: 0.11% for the first, 0.11% for the second.

Work on `COC1C=CCC(C)C(C)S(=O)(=O)NC(=O)c2ccc3c(c2)N(CC2CCC21)CC1(CCCc2cc(Cl)ccc21)CO3` (stereo unspecified) + CN1CCN(c2cc(C(=O)Nc3cc4cc(-c5cnn(C)c5)ccc4cn3)ccn2)CC1 yielded a viability, T/C of 0.13%.

Same assay, conditions: second compound 10 µM; first compound 0.316 µM; stronger effect = lower value

Compared with `C=C(F)C(=O)N1CCN(c2nc(OCC3CCCN3C)nc3c2CCN(c2cccc4cccc(Cl)c24)C3)CC1CC#N` (stereo unspecified) + CN1CCN(c2cc(C(=O)Nc3cc4cc(-c5cnn(C)c5)ccc4cn3)ccn2)CC1, `C=CC(=O)N1CCN(c2nc(=O)n(-c3c(C)ccnc3C(C)C)c3nc(-c4c(O)cccc4F)c(F)cc23)C(C)C1` (stereo unspecified) + CN1CCN(c2cc(C(=O)Nc3cc4cc(-c5cnn(C)c5)ccc4cn3)ccn2)CC1 is lower in viability, T/C: 0.19% for the first, 0.12% for the second.

Molecule `COC1C=CCC(C)C(C)S(=O)(=O)NC(=O)c2ccc3c(c2)N(CC2CCC21)CC1(CCCc2cc(Cl)ccc21)CO3` (stereo unspecified) + CN1CCN(c2cc(C(=O)Nc3cc4cc(-c5cnn(C)c5)ccc4cn3)ccn2)CC1 has a viability, T/C of 0.19%.

Same assay, conditions: second compound 10 µM; first compound 1 µM; stronger effect = lower value

First: C=C(F)C(=O)N1CCN(c2nc(OCC3CCCN3C)nc3c2CCN(c2cccc4cccc(Cl)c24)C3)CC1CC#N (stereo unspecified) + CN1CCN(c2cc(C(=O)Nc3cc4cc(-c5cnn(C)c5)ccc4cn3)ccn2)CC1
Second: C=CC(=O)N1CCN(c2nc(=O)n(-c3c(C)ccnc3C(C)C)c3nc(-c4c(O)cccc4F)c(F)cc23)C(C)C1 (stereo unspecified) + CN1CCN(c2cc(C(=O)Nc3cc4cc(-c5cnn(C)c5)ccc4cn3)ccn2)CC1
The viability, T/C of the first is higher: 0.21% for the first, 0.13% for the second.

`COC1C=CCC(C)C(C)S(=O)(=O)NC(=O)c2ccc3c(c2)N(CC2CCC21)CC1(CCCc2cc(Cl)ccc21)CO3` (stereo unspecified) + CN1CCN(c2cc(C(=O)Nc3cc4cc(-c5cnn(C)c5)ccc4cn3)ccn2)CC1 gave a viability, T/C of 0.31%.

Same assay, conditions: second compound 10 µM; first compound 3.16 µM; stronger effect = lower value

Compared with `C=C(F)C(=O)N1CCN(c2nc(OCC3CCCN3C)nc3c2CCN(c2cccc4cccc(Cl)c24)C3)CC1CC#N` (stereo unspecified) + CN1CCN(c2cc(C(=O)Nc3cc4cc(-c5cnn(C)c5)ccc4cn3)ccn2)CC1, `C=CC(=O)N1CCN(c2nc(=O)n(-c3c(C)ccnc3C(C)C)c3nc(-c4c(O)cccc4F)c(F)cc23)C(C)C1` (stereo unspecified) + CN1CCN(c2cc(C(=O)Nc3cc4cc(-c5cnn(C)c5)ccc4cn3)ccn2)CC1 is lower in viability, T/C: 0.2% for the first, 0.12% for the second.

For `COC1C=CCC(C)C(C)S(=O)(=O)NC(=O)c2ccc3c(c2)N(CC2CCC21)CC1(CCCc2cc(Cl)ccc21)CO3` (stereo unspecified) + CN1CCN(c2cc(C(=O)Nc3cc4cc(-c5cnn(C)c5)ccc4cn3)ccn2)CC1, the viability, T/C was 0.37%.

Same assay, conditions: second compound 10 µM; first compound 10 µM; stronger effect = lower value

Compared with `C=C(F)C(=O)N1CCN(c2nc(OCC3CCCN3C)nc3c2CCN(c2cccc4cccc(Cl)c24)C3)CC1CC#N` (stereo unspecified) + CN1CCN(c2cc(C(=O)Nc3cc4cc(-c5cnn(C)c5)ccc4cn3)ccn2)CC1, `C=CC(=O)N1CCN(c2nc(=O)n(-c3c(C)ccnc3C(C)C)c3nc(-c4c(O)cccc4F)c(F)cc23)C(C)C1` (stereo unspecified) + CN1CCN(c2cc(C(=O)Nc3cc4cc(-c5cnn(C)c5)ccc4cn3)ccn2)CC1 is lower in viability, T/C: 0.16% for the first, 0.13% for the second.

For `COC1C=CCC(C)C(C)S(=O)(=O)NC(=O)c2ccc3c(c2)N(CC2CCC21)CC1(CCCc2cc(Cl)ccc21)CO3` (stereo unspecified) + CN1CCN(c2cc(C(=O)Nc3cc4cc(-c5cnn(C)c5)ccc4cn3)ccn2)CC1, the viability, T/C was 0.17%.
